Experiment [1] has as its system Sweetpotato Whitefly-Crawler (Bemisia tabaci) (BEMITA). As to the kind of experiment: Insecticidal test for sweetpotato whitefly-crawler in foliar spray assay on cotton plants. Type of experiment: in vivo. Conditions: 200 ppm foliar spray on cotton plants, graded after 8-9 days, Abbott-corrected % control, read-out: BEMITA % Ctrl @ 200 ppm. The procedure:
Cotton plants grown in 3-inch pots, with 1 small (3-5 cm) true leaf, were used as test substrate. The plants were placed in a room with whitefly adults. Adults were allowed to deposit eggs for 2-3 days. After a 2-3 day egg-laying period, plants were taken from the adult whitefly room. Adults were blown off leaves using a hand-held Devilbiss sprayer (23 psi). Plants with egg infestation (100-300 eggs per plant) were placed in a holding room for 5-6 days at 82° F. and 50% RH for egg hatch and crawler stage to develop. Four cotton plants were used for each treatment. Compounds (2 mg) were dissolved in 1 mL of acetone solvent, forming stock solutions of 2000 ppm. The stock solutions were diluted 10× with 0.025% Tween 20 in H2O to obtain a test solution at 200 ppm. A hand-held Devilbiss sprayer was used for spraying a solution to both sides of cotton leaf until runoff. Reference plants (solvent check) were sprayed with the diluent only. Treated plants were held in a holding room for 8-9 days at approximately 82° F. and 50% RH prior to grading. Evaluation was conducted by counting the number of live nymphs per plant under a microscope. Insecticidal activity was measured by using Abbott's correction formula and presented in “Table 4. Biological Data for GPA (MYZUPE) and sweetpotato whitefly-crawler (BEMITA)” (see column “BEMITA”): […]

Experiment [2] deals with Green Peach Aphid (Myzus persicae) (MYZUPE). The experiment is described as follows: Bioassays on Green Peach Aphid (GPA), foliar spray on cabbage seedlings. Type of experiment: in vivo. Conditions: 72 h, 200 ppm foliar spray on cabbage seedlings, graded after three days, Abbott-corrected % control, read-out: MYZUPE % Ctrl @ 200 ppm. The procedure:
Certain molecules disclosed in this document were tested against GPA using procedures described in the following example. In the reporting of the results, the “Table 3: GPA (MYZUPE) and sweetpotato whitefly-crawler (BEMITA) Rating Table” was used (See Table Section).
Cabbage seedlings grown in 3-inch pots, with 2-3 small (3-5 cm) true leaves, were used as test substrate. The seedlings were infested with 20-50 GPA (wingless adult and nymph stages) one day prior to chemical application. Four pots with individual seedlings were used for each treatment. Test compounds (2 mg) were dissolved in 2 mL of acetone/methanol (1:1) solvent, forming stock solutions of 1000 ppm test compound. The stock solutions were diluted 5× with 0.025% Tween 20 in H2O to obtain the solution at 200 ppm test compound. A hand-held aspirator-type sprayer was used for spraying a solution to both sides of […] leaves until runoff. Reference plants (solvent check) were sprayed with the diluent only containing 20% by volume of acetone/methanol (1:1) solvent. Treated plants were held in a holding room for three days at approximately 25° C. and ambient relative humidity (RH) prior to grading. […] Percent Control was measured by using Abbott's correction formula (W. S. Abbott, “A Method of Computing the Effectiveness of an Insecticide” J. Econ. Entomol. 18 (1925), pp. 265-267) as follows. […]

Experimental findings from patent US20140296068A1, “PESTICIDAL COMPOSITIONS AND PROCESSES RELATED THERETO” (Dow AgroSciences LLC, priority 2011, published 2014) are described below.

SMILES strings stand for the structures.

Regarding `C#CCN(C(=O)CCSC)n1cc(-c2cccnc2)nc1C` [Compound 42], the inhibition at 200 ppm in experiment [1] is 80 to 100%; in experiment [2], 0 to 80%.
